Source: US8163775B2, “Allosteric modulators of metabotropic glutamate receptors” (Addex Pharma SA, priority 2003, dated 2012)

melting point | Compound
110 to 115 °C | O=C(c1ccc2[nH]cnc2c1)N1CCC[C@H](c2nc(-c3ccc(F)cc3)no2)C1 [Example 45, {(S)-3-[3-(4-Fluoro-phenyl)-1,2,4-oxadiazol-5-yl]-piperidin-1-yl}-benzoimidazol-6-yl-methanone]
63 to 64 °C | O=C(c1ccc2ncsc2c1)N1CCC[C@H](c2nc(-c3ccc(F)cc3)no2)C1 [Example 36, Benzothiazol-6-yl-{(S)-3-[3-(4-fluoro-phenyl)-1,2,4-oxadiazol-5-yl]-piperidin-1-yl}-methanone]
94 to 95 °C | O=C(c1nccs1)N1CCC[C@H](c2nc(-c3ccc(F)cc3)no2)C1 [Example 37, {(S)-3-[3-(4-Fluoro-phenyl)-1,2,4-oxadiazol-5-yl]-piperidin-1-yl}-thiazol-2-yl-methanone]
142 to 143 °C | O=C(c1ccc(F)cc1)N1CCC[C@H](c2nc(-c3ccc4ccccc4c3)no2)C1 [Example 53, (4-Fluoro-phenyl)-[(S)-3-(3-naphthalen-2-yl-[1,2,4]oxadiazol-5-yl)-piperidin-1-yl]-methanone]
121 °C | COc1ccc(-c2noc(C3CCCN(C(=O)c4ccccc4)C3)n2)cc1 (stereo not shown) [Example 3, {3-[3-(4-Methoxy-phenyl)-[1,2,4]oxadiazol-5-yl]-piperidin-1-yl}-phenyl-methanone]
120 to 121 °C | O=C(c1ccc(F)c(F)c1)N1CCC[C@H](c2nc(-c3ccc(F)cc3)no2)C1 [Example 35, (3,4-Difluoro-phenyl)-{(S)-3-[3-(4-fluoro-phenyl)-[1,2,4]oxadiazol-5-yl]-piperidin-1-yl}-methanone]
108 to 109 °C | Cc1cc(C(=O)N2CCC[C@H](c3nc(-c4ccc(F)cc4)no3)C2)nn1C [Example 21, (1,5-Dimethyl-1H-pyrazol-3-yl)-{(S)-3-[3-(4-fluoro-phenyl)-[1,2,4]oxadiazol-5-yl]-piperidin-1-yl}-methanone]
139 to 140 °C | O=C(c1cccc(F)c1)N1CCCC(c2nc(-c3ccc(F)cc3)no2)C1 (stereo not shown) [Example 6, (3-Fluoro-phenyl)-{3-[3-(4-fluoro-phenyl)-[1,2,4]oxadiazol-5-yl]-piperidin-1-yl}-methanone]
129 to 130 °C | N#Cc1ccc(C(=O)N2CCC[C@H](c3nc(-c4ccc(F)cc4)no3)C2)cc1 [Example 23, 4-{(S)-3-[3-(4-Fluoro-phenyl)-[1,2,4]oxadiazol-5-yl]-piperidine-1-carbonyl}-benzonitrile]
106 to 107 °C | Cc1cc(C(=O)N2CCC[C@H](c3nc(-c4ccc(F)cc4)no3)C2)ccc1F [Example 30, (4-Fluoro-3-methyl-phenyl)-{(S)-3-[3-(4-fluoro-phenyl)-[1,2,4]oxadiazol-5-yl]-piperidin-1-yl}-methanone]
122 to 124 °C | Cc1ncsc1C(=O)N1CCC[C@H](c2nc(-c3ccc(F)cc3)no2)C1 [Example 38, {(S)-3-[3-(4-Fluoro-phenyl)-1,2,4-oxadiazol-5-yl]-piperidin-1-yl}-(4-methyl-thiazol-5-yl)-methanone]
95 °C | O=C(c1ccc(F)cc1)N1CCCC(c2nnc(-c3ccc(F)cc3)[nH]2)C1 (stereo not shown) [Example 1, (4-Fluoro-phenyl)-{3-[5-(4-fluoro-phenyl)-4H-[1,2,4]triazol-3-yl]-piperidin-1-yl}-methanone]
82 to 83 °C | O=C(c1ccccc1)N1CCCC(c2nc(-c3ccc(F)cc3)no2)C1 (stereo not shown) [Example 5, {3-[3-(4-Fluoro-phenyl)-[1,2,4]oxadiazol-5-yl]-piperidin-1-yl}-phenyl-methanone]
109 to 110 °C | O=C(c1ccc(C(F)(F)F)cc1)N1CCC[C@H](c2nc(-c3ccc(F)cc3)no2)C1 [Example 22, {(S)-3-[3-(4-Fluoro-phenyl)-[1,2,4]oxadiazol-5-yl]-piperidin-1-yl}-(4-trifluoromethyl-phenyl)-methanone]
162 to 164 °C | O=C(c1ccc(F)cc1)N1CCC[C@H](c2nc(-c3ccc([N+](=O)[O-])cc3)no2)C1 [Example 71, (4-Fluoro-phenyl)-{(S)-3-[3-(4-nitro-phenyl)-[1,2,4]oxadiazol-5-yl]-piperidin-1-yl}-methanone]
78 to 79 °C | O=C(c1ccc(F)cc1)N1CCCC(c2nc(-c3ccccc3)no2)C1 (stereo not shown) [Example 7, (4-Fluoro-phenyl)-[3-(3-phenyl-[1,2,4]oxadiazol-5-yl)-piperidin-1-yl]-methanone]
123 to 124 °C | O=C(c1ccc(F)c(Cl)c1)N1CCC[C@H](c2nc(-c3ccc(F)cc3)no2)C1 [Example 27, (3-Chloro-4-fluoro-phenyl)-{(S)-3-[3-(4-fluoro-phenyl)-[1,2,4]oxadiazol-5-yl]-piperidin-1-yl}-methanone]
115 to 119 °C | O=C(c1ccc(F)c(F)c1)N1CCC[C@H](c2nc(-c3ccccc3F)no2)C1 [Example 59]
115 to 117 °C | O=C(c1ccc(-c2ccccn2)s1)N1CCC[C@H](c2nc(-c3ccc(F)cc3)no2)C1 [Example 31, {(S)-3-[3-(4-Fluoro-phenyl)-1,2,4-oxadiazol-5-yl]-piperidin-1-yl}-(5-pyridin-2-yl-thiophen-2-yl)-methanone]

melting point | Compound
139 to 140 °C | O=C(c1cc(F)c(F)c(F)c1)N1CCC[C@H](c2nc(-c3ccc(F)cc3)no2)C1 [Example 26, {(S)-3-[3-(4-Fluoro-phenyl)-[1,2,4]oxadiazol-5-yl]-piperidin-1-yl}-(3,4,5-trifluoro-phenyl)-methanone]
112 to 114 °C | O=C(c1ccc(N2CCOCC2)nc1)N1CCC[C@H](c2nc(-c3ccc(F)cc3)no2)C1 [Example 39, {(S)-3-[3-(4-Fluoro-phenyl)-1,2,4-oxadiazol-5-yl]-piperidin-1-yl}-(6-morpholin-4-yl-pyridin-3-yl)-methanone]
86 to 89 °C | O=C(c1ccc(F)cc1)N1CCCC(c2nc(-c3cccc(F)c3)no2)C1 (stereo not shown) [Example 10, (4-Fluoro-phenyl)-{3-[3-(3-fluoro-phenyl)-[1,2,4]oxadiazol-5-yl]-piperidin-1-yl}-methanone]
90 to 91 °C | O=C(c1csnn1)N1CCC[C@H](c2nc(-c3ccc(F)cc3)no2)C1 [Example 18, {(S)-3-[3-(4-Fluoro-phenyl)-[1,2,4]oxadiazol-5-yl]-piperidin-1-yl}-[1,2,3]thiadiazol-4-yl-methanone]
93 to 94 °C | O=C(c1ccno1)N1CCC[C@H](c2nc(-c3ccc(F)cc3)no2)C1 [Example 24, {(S)-3-[3-(4-Fluoro-phenyl)-[1,2,4]oxadiazol-5-yl]-piperidin-1-yl}-isoxazol-5-yl-methanone]
138 to 140 °C | O=C(c1ccc(F)c(F)c1)N1CCC[C@H](c2nc(-c3ccc([N+](=O)[O-])cc3)no2)C1 [Example 72, (3,4-Difluoro-phenyl)-{(S)-3-[3-(4-nitro-phenyl)-[1,2,4]oxadiazol-5-yl]-piperidin-1-yl}-methanone]
113 to 115 °C | O=C(c1ccc(F)cc1)N1CCC[C@H](c2nc(-c3ccncc3)no2)C1 [Example 48, (4-Fluoro-phenyl)-[(S)-3-(3-pyridin-4-yl-[1,2,4]oxadiazol-5-yl)-piperidin-1-yl]-methanone]
82 to 83 °C | O=C(c1cccs1)N1CCC[C@H](c2nc(-c3ccc(F)cc3)no2)C1 [Example 13, S-(thiophen-2-yl)-{3-[3-(4-fluoro-phenyl)-[1,2,4]oxadiazol-5-yl]-piperidin-1-yl}-methanone]
83 to 84 °C | O=C(CCc1ccc(F)cc1)N1CCC[C@H](c2nc(-c3ccc(F)cc3)no2)C1 [Example 42, 3-(4-Fluoro-phenyl)-1-{(S)-3-[3-(4-fluoro-phenyl)-1,2,4-oxadiazol-5-yl]-piperidin-1-yl}-propan-1-one]
90 to 92 °C | Cc1ccsc1C(=O)N1CCC[C@H](c2nc(-c3ccc(F)cc3)no2)C1 [Example 32, {(S)-3-[3-(4-Fluoro-phenyl)-1,2,4-oxadiazol-5-yl]-piperidin-1-yl}-(3-methyl-thiophen-2-yl)-methanone]
137 to 139 °C | O=C(/C=C/c1ccc(F)cc1)N1CCC[C@H](c2nc(-c3ccc(F)cc3)no2)C1 [Example 64, (E)-3-(4-Fluoro-phenyl)-1-{(S)-3-[3-(4-fluoro-phenyl)-[1,2,4]oxadiazol-5-yl]-piperidin-1-yl}-propenone]
191 to 192 °C | O=C(c1ccc2[nH]ccc2c1)N1CCC[C@H](c2nc(-c3ccc(F)cc3)no2)C1 [Example 40, {(S)-3-[3-(4-Fluoro-phenyl)-1,2,4-oxadiazol-5-yl]-piperidin-1-yl}-(1H-indol-5-yl)-methanone]
147 to 148 °C | Cc1nc(-c2cnccn2)sc1C(=O)N1CCC[C@H](c2nc(-c3ccc(F)cc3)no2)C1 [Example 14, {(S)-3-[3-(4-Fluoro-phenyl)-[1,2,4]oxadiazol-5-yl]-piperidin-1-yl}-(4-methyl-2-pyrazin-2-yl-thiazol-5-yl)-methanone]
116 to 118 °C | O=C(c1ccc(F)cc1)N1CCC[C@H](c2nc(-c3ccccc3)no2)C1 [Example 69, (4-Fluoro-phenyl)-[(S)-3-(3-phenyl-[1,2,4]oxadiazol-5-yl)-piperidin-1-yl]-methanone]
116 to 117 °C | O=C(c1ccc(F)cc1)N1CCOC(c2nc(-c3ccc(F)cc3)no2)C1 (stereo not shown) [Example 60, (4-Fluoro-phenyl)-{2-[3-(4-fluoro-phenyl)-[1,2,4]oxadiazol-5-yl]-morpholin-4-yl}-methanone]
149 to 151 °C | O=C(c1ccc(F)c(F)c1)N1CCC[C@H](c2nc(-c3ccccc3)no2)C1 [Example 70, (3,4-Difluoro-phenyl)-[(S)-3-(3-phenyl-[1,2,4]oxadiazol-5-yl)-piperidin-1-yl]-methanone]
84 to 85 °C | Cn1cccc1C(=O)N1CCC[C@H](c2nc(-c3ccc(F)cc3)no2)C1 [Example 33, {(S)-3-[3-(4-Fluoro-phenyl)-1,2,4-oxadiazol-5-yl]-piperidin-1-yl}-(1-methyl-1H-pyrrol-2-yl)-methanone]
130 to 131 °C | O=C(c1nc2ccccc2s1)N1CCC[C@H](c2nc(-c3ccc(F)cc3)no2)C1 [Example 19, Benzothiazol-2-yl-{(S)-3-[3-(4-fluoro-phenyl)-[1,2,4]oxadiazol-5-yl]-piperidin-1-yl}-methanone]
